Assay results from US20040054182A1, “1h-imidazopyridine derivatives” (priority 2000, published 2004).
Where a name gives a salt, the structure may show the parent alone.

How the values were obtained:
human TNF-alpha = experiment: Inhibitory action against TNF-alpha production in LPS-stimulated human PBMCs (sandwich ELISA of culture supernatant); type: cell-based; details: 16 hours
Method: (§1) As an example of the excellent effects of the compounds of the present invention, experimental results of inhibitory actions against production of TNF-alpha and IL-1 beta in human cells will be shown below.
(§2) About 50 mL of whole blood was collected from each adult healthy volunteer by venepuncture, and poured into plastic tubes which containing 170 micro L of Novo-heparin 1000 (produced by Novo-Nordisk). Then, PBMCs (Peripheral Blood Mononuclear Cells) were separated using LeucoPREP™ (produced by Becton Dickinson) lymphocyte separation tube, and cultured with RPMI-1640 medium (produced by Nissui Pharmaceutical Co.) containing 2 mM L-glutamine (produced by Life Technologies), 2.5 U/mL penicillin-2.5 micro g/mL streptomycin solution (produced by Life Technologies) supplemented with 10% fetal calf serum (produced by Intergen Company) at 1×10^6 cells/mL.
(§3) Test compounds were dissolved in distilled ultra-pure water, dimethyl sulfoxide or 0.1 M hydrochloric acid at 20 micro M as far as possible, and then sequentially diluted with saline and used.
(§4) A hundred and eighty micro L of prepared human PBMCs were added to each well of 96-well plate (MicroTest III™ tissue culture plate; produced by Becton Dickinson) containing 10 micro L of adequate concentrations solution of test compounds. Then 30 minutes after, 10 micro L of 20 micro g/mL lipopolysaccharide (LPS) was added to each well, and cells in the well plate were covered with plastic lid and incubated for 16 hours at 37° C. in an atmosphere of 5% CO2.
(§5) The levels of human TNF-alpha and human IL-1 beta in culture supernatant were measured by constructed sandwich enzyme-linked immunosorbent assay method. Ninety-six-well microtiter plates were coated with diluted anti-cytokine antibody (capture/first-antibody). After washing the wells, the culture supernatant was diluted appropriately, added to each well and incubated. Then detection/second-antibody against cytokine and HRP (horseradish peroxidase)-conjugated/third-antibody against detection-antibody were added to wells sequentially, with interposed washing processes. After the final washing process, reaction of calorimetric quantification was started by addition of tetramethylbenzidine solution (produced by DAKO) to each well. After quenching the reaction by addition of 0.5 M sulfuric acid, optical absorbance of each well at 450 nm was measured by M-VmaxTM kinetic microplate reader (produced by Molecular Devices). Concentrations of cytokines were determined by Softmax™ (produced by Molecular Devices) quantification software in comparison with calibration curve derived from corresponding recombinant cytokines as standard. For measurement of human TNF-alpha, monoclonal mouse anti-human TNF-alpha (produced by ENDOGEN), polyclonal rabbit anti-human TNF-alpha (produced by Pharma Biotechnologie Hannover), peroxidase-conjugated donkey anti-rabbit IgG antibodies (produced by Jackson ImmunoRes. Labs.), and recombinant human TNF-alpha (produced by INTERGEN Company) were used for the capture-, detection-, HRP-conjugated-antibodies and the standard for calibration curve, respectively. […]

human IL-1 beta = experiment: Inhibitory action against IL-1 beta production in LPS-stimulated human PBMCs (sandwich ELISA of culture supernatant); type: cell-based; details: 16 hours
Method: as §1, §2, §3, §4, §5

[1] = administered concentration 0.01 micro mol/L
[2] = administered concentration 0.03 micro mol/L
[3] = administered concentration 0.10 micro mol/L
[4] = administered concentration 0.3 micro mol/L
[5] = administered concentration 1.0 micro mol/L

melting point	Compound	other results
290 to 295 °C (dec.)	FC(F)(F)c1nc2cc(Cl)ccc2c2c1nc(-c1ncc[nH]1)n2CCC1CCNCC1 (as salt: trifluoroacetate) [Example 75, 7-Chloro-2-(2-1H-imidazolyl)-1-[2-(4-piperidyl)ethyl]-4-trifluoromethyl-1H-imidazo[4,5-c]quinoline]	–
234 to 235 °C	O=C(CCl)NCCn1c(-c2ccc[nH]2)nc2c(C(F)(F)F)nc3ccccc3c21 [Example 125, 2-chloro-N-[2-[2-(2-pyrrolyl)-4-trifluoromethyl-1H-imidazo-[4,5-c]quinolin-1-yl]ethyl]acetamide]	–
243 to 245 °C (dec.)	Cc1cccc2c1nc(C(F)(F)F)c1nc(-c3nccs3)n(CCC3CCNCC3)c12 (as salt: trifluoroacetate) [Example 95, 6-Methyl-1-[2-(4-piperidyl)ethyl]-2-(2-thiazolyl)-4-trifluoromethyl-1H-imidazo-[4,5-c]quinoline]	–
233 to 234 °C (dec.)	Cc1cccc2c1nc(C(F)(F)F)c1nc(-c3ccc[nH]3)n(CCC3CCNCC3)c12 (as salt: trifluoroacetate) (hydrate or solvate) [Example 94, 6-Methyl-1-[2-(4-piperidyl)ethyl]-2-(2-pyrrolyl)-4-trifluoromethyl-1H-imidazo-[4,5-c]quinoline]	–
207.5 to 208 °C	CN(C)CC(=O)NCCn1c(-c2ccccc2)nc2c(C(F)(F)F)nc3ccccc3c21.O=C(O)/C=C/C(=O)O [Example 128, 2-Dimethylamino-N-[2-(2-phenyl-4-trifluoromethyl-1H-imidazo[4,5-c]quinolin-1-yl)-ethyl]acetamide fumarate]	–
245 to 251 °C (dec.)	N#Cc1nc2ccccc2c2c1nc(-c1ccccc1)n2CCC1CCNCC1 (as salt: trifluoroacetate) (hydrate or solvate) [Example 117, 4-Cyano-2-phenyl-1-[2-(4-piperidyl)ethyl]-1H-imidazo[4,5-c]quinoline]	–

More lines, now with the values behind:

Compound	melting point	other results
Cc1cccc2c1nc(C(F)(F)F)c1nc(-c3ncc[nH]3)n(CCC3CCNCC3)c12 (as salt: trifluoroacetate) (hydrate or solvate) [Example 96, 2-(2-1H-Imidazolyl)-6-methyl-1-[2-(4-piperidyl)ethyl]-4-trifluoromethyl-1H-imidazo[4,5-c]quinoline]	306 to 308 °C (dec.)	–
FC(F)(F)c1nc2ccccc2c2c1nc(-c1ccc[nH]1)n2CCC1CNCCO1 (stereo not shown) (as salt: trifluoroacetate) [Example 102, 1-[2-(2-Morpholinyl)ethyl]-2-(2-pyrrolyl)-4-trifluoromethyl-1H-imidazo[4,5-c]-quinoline]	254 to 258 °C (dec.)	–
Fc1ccc2c(c1)nc(C(F)(F)F)c1nc(-c3ccco3)n(CCC3CCNCC3)c12 (as salt: trifluoroacetate) (hydrate or solvate)	239 to 241 °C (dec.)	–
Fc1ccc2c(c1)nc(C(F)(F)F)c1nc(-c3cccs3)n(CCC3CCNCC3)c12 (as salt: trifluoroacetate) (hydrate or solvate) [Example 85, 7-Fluoro-1-[2-(4-piperidyl)ethyl]-2-(2-thienyl)-4-trifluoromethyl-1H-imidazo-[4,5-c]quinoline]	234 to 235 °C (dec.)	–
FC(F)(F)c1nc2ccccc2c2c1nc(-c1ccc[nH]1)n2CCC1CNCCO1 (stereo not shown) [Example 102, 1-[2-(2-Morpholinyl)ethyl]-2-(2-pyrrolyl)-4-trifluoromethyl-1H-imidazo[4,5-c]-quinoline]	–	Inhibitory action against TNF-alpha production in human cells (inhibitory percentages of cytokine production) (human TNF-alpha; [1]): 96%; Inhibitory action against TNF-alpha production in human cells (inhibitory percentages of cytokine production) (human TNF-alpha; [2]): 84%; Inhibitory action against TNF-alpha production in human cells (inhibitory percentages of cytokine production) (human TNF-alpha; [3]): 25%; Inhibitory action against TNF-alpha production in human cells (inhibitory percentages of cytokine production) (human TNF-alpha; [4]): 23%; Inhibitory action against TNF-alpha production in human cells (inhibitory percentages of cytokine production) (human TNF-alpha; [5]): 27%; Inhibitory action against IL-1 beta production in human cells (inhibitory percentages of cytokine production) (human IL-1 beta; [1]): 81%; Inhibitory action against IL-1 beta production in human cells (inhibitory percentages of cytokine production) (human IL-1 beta; [2]): 67%; Inhibitory action against IL-1 beta production in human cells (inhibitory percentages of cytokine production) (human IL-1 beta; [3]): 48%; Inhibitory action against IL-1 beta production in human cells (inhibitory percentages of cytokine production) (human IL-1 beta; [4]): 0%; Inhibitory action against IL-1 beta production in human cells (inhibitory percentages of cytokine production) (human IL-1 beta; [5]): 0%
c1ccc(-c2nc3c(-c4cccs4)nc4ccccc4c3n2CCC2CCNCC2)cc1 (as salt: salt) [Example 115, 2-Phenyl-1-[2-(4-piperidyl)ethyl]-4-(2-thienyl)-1H-imidazo[4,5-c]quinoline]	210 to 212 °C	–
Cc1ccc2c(c1)nc(C(F)(F)F)c1nc(-c3ccccc3)n(CCC3CCNCC3)c12 (as salt: trifluoroacetate) [Example 86, 7-Methyl-2-phenyl-1-[2-(4-piperidyl)ethyl]-4-trifluoromethyl-1H-imidazo[4,5-c]-quinoline]	234 to 235 °C (dec.)	–
FC(F)(F)c1nc2ccccc2c2c1nc(-c1ccco1)n2CCC1CCNCC1 (as salt: trifluoroacetate) (hydrate or solvate)	133.5 to 136.5 °C (dec.)	–
c1c[nH]c(-c2nc3c(C4CC4)nc4ccccc4c3n2CCC2CCNCC2)c1 (hydrate or solvate) [Example 111, 4-Cyclopropyl-1-[2-(4-piperidyl)ethyl]-2-(2-pyrrolyl)-1H-imidazo[4,5-c]quinoline]	212 to 213.5 °C	–
Fc1ccc2c(c1)nc(C(F)(F)F)c1nc(-c3ccccc3)n(CCC3CCNCC3)c12 (as salt: trifluoroacetate) [Example 80, 7-Fluoro-2-phenyl-1-[2-(4-piperidyl)ethyl]-4-trifluoromethyl-1H-imidazo[4,5-c]-quinoline]	240 to 242 °C (dec.)	–
